Measured values: patent US12521440B2, “Degradation of bruton's tyrosine kinase (BTK) by conjugation of BTK inhibitors with E3 ligase ligand and methods of use” (BeOne Medicines I GmbH, priority 2021, dated 2026)
Counter-ions that a name gives are not always drawn.

Key:
BTK = target: T1, BTK (Homo sapiens, UniProt Q06187); experiment: BTK degradation in TMD-8 cells (HTRF assay); format: cell-based; settings: 6 h treatment, HTRF BTK degradation IC50 (DC50)
T1 construct: endogenous in cells; host or cells: TMD-8 cells
T1 sequence (Q06187 whole entry): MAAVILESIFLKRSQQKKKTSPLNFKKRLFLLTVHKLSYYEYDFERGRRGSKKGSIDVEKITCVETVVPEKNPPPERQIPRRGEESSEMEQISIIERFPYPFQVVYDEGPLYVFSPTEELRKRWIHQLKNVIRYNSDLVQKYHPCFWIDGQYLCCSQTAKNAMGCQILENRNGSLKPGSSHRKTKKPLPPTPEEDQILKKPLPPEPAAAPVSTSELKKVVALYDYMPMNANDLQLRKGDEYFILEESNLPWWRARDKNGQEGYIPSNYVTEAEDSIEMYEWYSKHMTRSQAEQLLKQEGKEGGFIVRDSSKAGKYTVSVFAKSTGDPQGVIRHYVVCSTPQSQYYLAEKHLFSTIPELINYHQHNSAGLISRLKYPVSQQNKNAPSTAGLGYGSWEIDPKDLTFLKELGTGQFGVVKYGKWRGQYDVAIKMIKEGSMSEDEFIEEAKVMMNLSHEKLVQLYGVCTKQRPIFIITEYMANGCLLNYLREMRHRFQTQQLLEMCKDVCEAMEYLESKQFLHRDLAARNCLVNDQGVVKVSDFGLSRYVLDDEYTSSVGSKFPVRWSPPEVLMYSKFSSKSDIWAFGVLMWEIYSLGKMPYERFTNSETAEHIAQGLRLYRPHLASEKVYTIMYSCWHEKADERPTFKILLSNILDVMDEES
Procedure, shortened: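 TMD-8 cells exposed to 8 concentrations (6-fold serial dilution from 1 mM 500× DMSO stocks; 0.2% DMSO final) for 6 h. Lysates incubated overnight at room temperature with HTRF antibodies, read at 665/620 nm. DC50 from four-parameter logistic fit of percent inhibition.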

HEK-293 cells = experiment: HEK-293 cytotoxicity detection (CellTiter-Glo); format: cell-based; settings: Homo sapiens, 72 h incubation, read-out: HEK293
Procedure, shortened: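 HEK-293 cells exposed 72 h to 8 compound concentrations (4-fold dilution series, 0.2% DMSO). Viability read as CellTiter-Glo luminescence; IC50 from four-parameter logistic fit of percent inhibition.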

SMILES | DC50 (BTK) [nM] | IC50 (HEK-293 cells) [µM]
Cc1cc(-c2cc(Nc3ccc(N4CCN(C5CN(c6ccc(N7CCC(=O)NC7=O)cc6)C5)CC4)cn3)ncn2)ccc1[C@@H](C)NC(=O)c1nc(C(C)(C)C)no1 [Example 40, (R)-3-(tert-butyl)-N-(1-(4-(6-((5-(4-(1-(4-(2,4-dioxotetrahydropyrimidin-1(2H)-yl)phenyl)azetidin-3-yl)piperazin-1-yl)pyridin-2-yl)amino)pyrimidin-4-yl)-2-methylphenyl)ethyl)-1,2,4-oxadiazole-5-carboxamide] | 0.382 | > 10
Cc1cc(-c2cc(Nc3ccc(N4CCN(C5CN(c6ccc(C7CCC(=O)NC7=O)cc6)C5)CC4)cn3)ncn2)ccc1[C@@H](C)NC(=O)c1nc(C(C)(C)C)no1 (stereo partly drawn) [Example 41, 3-(tert-butyl)-N-((1R)-1-(4-(6-((5-(4-(1-(4-(2,6-dioxopiperidin-3-yl)phenyl)azetidin-3-yl)piperazin-1-yl)pyridin-2-yl)amino)pyrimidin-4-yl)-2-methylphenyl)ethyl)-1,2,4-oxadiazole-5-carboxamide] | 2.47 | > 10
Cc1cc(-c2cc(Nc3ccc(N4CCN(C5CC6(CCN(c7ccc(N8CCC(=O)NC8=O)cc7)CC6)C5)CC4)cn3)ncn2)ccc1[C@@H](C)NC(=O)c1nc(C(C)(C)C)no1 [Example 43, (R)-3-(tert-butyl)-N-(1-(4-(6-((5-(4-(7-(4-(2,4-dioxotetrahydropyrimidin-1(2H)-yl)phenyl)-7-azaspiro[3.5]nonan-2-yl)piperazin-1-yl)pyridin-2-yl)amino)pyrimidin-4-yl)-2-methylphenyl)ethyl)-14-oxadiazole-5-carboxamide] | 2.99 | > 10
Cc1cc(-c2cc(Nc3ccc(N4CCN(C5CN(C6CN(c7ccc8c(c7)C(=O)N(C7CCC(=O)NC7=O)C8=O)C6)C5)CC4)cn3)ncn2)ccc1[C@@H](C)NC(=O)c1nc(C(C)(C)C)no1 (stereo partly drawn) [Example 44, 3-(tert-butyl)-N-((1R)-1-(4-(6-((5-(4-(1′-(2-(2,6-dioxopiperidin-3-yl)-1,3-dioxoisoindolin-5-yl)-[1,3′-biazetidin]-3-yl)piperazin-1-yl)pyridin-2-yl)amino)pyrimidin-4-yl)-2-methylphenyl)ethyl)-1,2,4-oxadiazole-5-carboxamide] | 1.63 | > 10
Cc1cc(-c2cc(Nc3ccc(N4CCN(CCc5ccc(C6CCC(=O)NC6=O)c(F)c5)CC4)cn3)ncn2)ccc1[C@@H](C)NC(=O)c1nc(C(C)(C)C)no1 (stereo partly drawn) [Example 47, 3-(tert-butyl)-N-((1R)-1-(4-(6-((5-(4-(4-(2,6-dioxopiperidin-3-yl)-3-fluorophenethyl)piperazin-1-yl)pyridin-2-yl)amino)pyrimidin-4-yl)-2-methylphenyl)ethyl)-1,2,4-oxadiazole-5-carboxamide] | 0.96 | > 10
Cc1cc(-c2cc(Nc3ccc(N4CCN(CCc5ccc6c(c5)oc(=O)n6C5CCC(=O)NC5=O)CC4)cn3)ncn2)ccc1[C@@H](C)NC(=O)c1nc(C(C)(C)C)no1 (stereo partly drawn) [Example 49, 3-(tert-butyl)-N-((1R)-1-(4-(6-((5-(4-(2-(3-(2,6-dioxopiperidin-3-yl)-2-oxo-2,3-dihydrobenzo[d]oxazol-6-yl)ethyl)piperazin-1-yl)pyridin-2-yl)amino)pyrimidin-4-yl)-2-methylphenyl)ethyl)-1,2,4-oxadiazole-5-carboxamide] | 0.486 | > 10
Cc1cc(-c2cc(Nc3ccc(N4CCN([C@H]5C[C@@H](c6ccc(N[C@@H]7CCC(=O)NC7=O)cc6)C5)CC4)cn3)ncn2)ccc1[C@@H](C)NC(=O)c1nc(C(C)(C)C)no1 [Example 52, 3-(tert-butyl)-N—((R)-1-(4-(6-((5-(4-((1S,3s)-3-(4-(((R)-2,6-dioxopiperidin-3-yl)amino)phenyl)cyclobutyl)piperazin-1-yl)pyridin-2-yl)amino)pyrimidin-4-yl)-2-methylphenyl)ethyl)-1,2,4-oxadiazole-5-carboxamide] | 3.04 | > 10
Cc1cc(-c2cc(Nc3ccc(N4CCN([C@H]5C[C@H](c6ccc(N[C@H]7CCC(=O)NC7=O)cc6)C5)CC4)cn3)ncn2)ccc1[C@@H](C)NC(=O)c1nc(C(C)(C)C)no1 [Example 53, 3-(tert-butyl)-N—((R)-1-(4-(6-((5-(4-((1S,3r)-3-(4-(((S)-2,6-dioxopiperidin-3-yl)amino)phenyl)cyclobutyl)piperazin-1-yl)pyridin-2-yl)amino)pyrimidin-4-yl)-2-methylphenyl)ethyl)-1,2,4-oxadiazole-5-carboxamide formate] | 1.91 | > 10

Continued by falling DC50 (BTK), values first:

DC50 (BTK) [nM] | SMILES | IC50 (HEK-293 cells) [µM]
1.75 | Cc1cc(-c2cc(Nc3ccc(N4CCN(CCc5cc(F)c(C6CCC(=O)NC6=O)c(F)c5)CC4)cn3)ncn2)ccc1[C@@H](C)NC(=O)c1nc(C(C)(C)C)no1 (stereo partly drawn) [Example 45, 3-(tert-butyl)-N-((1R)-1-(4-(6-((5-(4-(4-(2,6-dioxopiperidin-3-yl)-3,5-difluorophenethyl)piperazin-1-yl)pyridin-2-yl)amino)pyrimidin-4-yl)-2-methylphenyl)ethyl)-1,2,4-oxadiazole-5-carboxamide] | > 10
1.44 | Cc1cc(CCN2CCN(c3ccc(Nc4cc(-c5ccc([C@@H](C)NC(=O)c6nc(C(C)(C)C)no6)c(C)c5)ncn4)nc3)CC2)ccc1C1CCC(=O)NC1=O (stereo partly drawn) [Example 48, 3-(tert-butyl)-N-((1R)-1-(4-(6-((5-(4-(4-(2,6-dioxopiperidin-3-yl)-3-methylphenethyl)piperazin-1-yl)pyridin-2-yl)amino)pyrimidin-4-yl)-2-methylphenyl)ethyl)-1,2,4-oxadiazole-5-carboxamide] | > 10
1.35 | Cc1cc(-c2cc(Nc3ccc(N4CCN(CCc5cccc6c5oc(=O)n6C5CCC(=O)NC5=O)CC4)cn3)ncn2)ccc1[C@@H](C)NC(=O)c1nc(C(C)(C)C)no1 (stereo partly drawn) [Example 51, 3-(tert-butyl)-N-((1R)-1-(4-(6-((5-(4-(2-(3-(2,6-dioxopiperidin-3-yl)-2-oxo-2,3-dihydrobenzo[d]oxazol-7-yl)ethyl)piperazin-1-yl)pyridin-2-yl)amino)pyrimidin-4-yl)-2-methylphenyl)ethyl)-1,2,4-oxadiazole-5-carboxamide formate] | > 10
1.2 | Cc1cc(-c2cc(Nc3ccc(N4CCN(C5CN(C6CN(c7ccc(C8CCC(=O)NC8=O)cc7)C6)C5)CC4)cn3)ncn2)ccc1[C@@H](C)NC(=O)c1nc(C(C)(C)C)no1 (stereo partly drawn) [Example 42, 3-(tert-butyl)-N-((1R)-1-(4-(6-((5-(4-(1′-(4-(2,6-dioxopiperidin-3-yl)phenyl)-[1,3′-biazetidin]-3-yl)piperazin-1-yl)pyridin-2-yl)amino)pyrimidin-4-yl)-2-methylphenyl)ethyl)-1,2,4-oxadiazole-5-carboxamide] | > 10
0.632 | Cc1cc(-c2cc(Nc3ccc(N4CCN(CCc5cccc6c5n(C)c(=O)n6C5CCC(=O)NC5=O)CC4)cn3)ncn2)ccc1[C@@H](C)NC(=O)c1nc(C(C)(C)C)no1 (stereo partly drawn) [Example 50, 3-(tert-butyl)-N-((1R)-1-(4-(6-((5-(4-(2-(1-(2,6-dioxopiperidin-3-yl)-3-methyl-2-oxo-2,3-dihydro-1H-benzo[d]imidazol-4-yl)ethyl)piperazin-1-yl)pyridin-2-yl)amino)pyrimidin-4-yl)-2-methylphenyl)ethyl)-1,2,4-oxadiazole-5-carboxamide] | 0.92
